Source: patent publication US11505553B2, “2-(Het)aryl-substituted fused heterocycle derivatives as pesticides” (Bayer Aktiengesellschaft, priority 2017, dated 2022)
Read-outs that look alike come from different tables or passages of the source.

Experiments:
Assay type in all cases: in vivo
Myzus persicae [1] = experiment: Myzus persicae oral test; details: 120 h, after 5 days, read-out: efficacy; for pest or weed control at 0.8 ppm: application rate 0.8 ppm; for pest or weed control at 4 ppm: application rate 4 ppm
Description: Solvent: 100 parts by weight of acetone To produce a suitable active ingredient formulation, 1 part by weight of active ingredient is dissolved with the stated parts by weight of solvent and made up to the desired concentration with water. 50 μl of the active ingredient preparation are transferred into microtitre plates and made up to a final volume of 200 μl with 150 μl of IPL41 insect medium (33%+15% sugar). Subsequently, the plates are sealed with parafilm, which a mixed population of green peach aphids (Myzus persicae) within a second microtitre plate is able to puncture and imbibe the solution. After 5 days, the efficacy in % is determined. 100% means that all the aphids have been killed; 0% means that no aphids have been killed.

Myzus persicae [2] = experiment: Myzus persicae spray test (MYZUPE S), bell pepper plants; details: 144 h, 6 dat, read-out: % efficacy
Description: Solvent: 14 parts by weight of dimethylformamide Emulsifier: alkylaryl polyglycol ether To produce an appropriate active ingredient formulation, 1 part by weight of active ingredient is dissolved with the stated parts by weight of solvent and made up with water containing an emulsifier concentration of 1000 ppm until the desired concentration is attained. For production of further test concentrations, the mixture is diluted with emulsifier-containing water. If addition of ammonium salts or/and penetrants is required, these are each added to the preparation solution in a concentration of 1000 ppm. Bell pepper plants (Capsicum annuum) severely infested by the green peach aphid (Myzus persicae) are treated by spraying with the active ingredient formulation in the desired concentration. After the desired time, the kill in % is determined. 100% means that all animals have been killed; 0% means that no animals have been killed.

Myzus persicae [3] = experiment: Myzus persicae spray test (MYZUPE), contrastive examples; details: 120 h, 5 dat, read-out: % efficacy
Description: (§1) Solvent: 78.0 parts by weight of acetone • • 1.5 parts by weight of dimethylformamide Emulsifier: alkylaryl polyglycol ether To produce a suitable active ingredient formulation, 1 part by weight of active ingredient is dissolved with the specified parts by weight of solvent and made up to the desired concentration with water containing an emulsifier concentration of 1000 ppm. To produce further test concentrations, the formulation is diluted with emulsifier-containing water. Discs of chinese cabbage leaves (Brassica pekinensis) infested by all stages of the green peach aphid (Myzus persicae) are sprayed with an active ingredient formulation of the desired concentration. After the desired time, the efficacy in % is determined. 100% means that all aphids have been killed; 0% means that no aphids have been killed.

Myzus persicae [4] = experiment: Myzus persicae spray test; details: foliar, 120 h, Chinese cabbage leaf discs, after 5 days, read-out: efficacy; for pest or weed control at 100 g/ha: application rate 100 g/ha
Description: as §1, with “Solvent: 78 parts by” for “Solvent: 78.0 parts by”, “Discs of Chinese cabbage leaves” for “Discs of chinese cabbage leaves”, “concentration. After 5 days, the efficacy” for “concentration. After the desired time, the efficacy”, “that all the aphids have” for “that all aphids have”

Ctenocephalides felis [5] = experiment: Ctenocephalides felis oral test; details: 48 h, application rate 100 ppm in citrated cattle blood, after 2 days, read-out: efficacy (kill)
Description: Solvent: dimethyl sulfoxide To produce a suitable active ingredient formulation, 10 mg of active ingredient are mixed with 0.5 ml of dimethyl sulfoxide. Dilution with citrated cattle blood gives the desired concentration. About 20 unfed adult cat fleas (Ctenocephalides felis) are placed into a chamber which is closed at the top and bottom with gauze. A metal cylinder whose bottom end is closed with parafilm is placed onto the chamber. The cylinder contains the blood/active ingredient formulation, which can be imbibed by the fleas through the parafilm membrane. After 2 days, the kill in % is determined. 100% means that all of the fleas have been killed; 0% means that none of the fleas have been killed.

Ctenocephalides felis [6] = experiment: Ctenocephalides felis in vitro contact test with adult cat fleas; details: application rate 5 μg/cm^2 (=500 g/ha), after 48 h, adult cat fleas dead or moribund, read-out: efficacy
Description: For the coating of the test tubes, 9 mg of active ingredient are first dissolved in 1 ml of acetone p.a. and then diluted to the desired concentration with acetone p.a. 250 μl of the solution are distributed homogeneously on the inner walls and the base of a 25 ml glass tube by turning and rocking on an orbital shaker (rocking rotation at 30 rpm for 2 h). With 900 ppm of active ingredient solution and internal surface area 44.7 cm^2, given homogeneous distribution, an area-based dose of 5 μg/cm^2 is achieved. After the solvent has evaporated off, the tubes are populated with 5-10 adult cat fleas (Ctenocephalides felis), sealed with a perforated plastic lid and incubated in a horizontal position at room temperature and ambient humidity. After 48 h, efficacy is determined. To this end, the tubes are stood upright and the fleas are knocked to the base of the tube. Fleas which remain motionless at the base or move in an uncoordinated manner are considered to be dead or moribund. […] 100% efficacy means that all the fleas were dead or moribund. 0% efficacy means that no fleas were harmed.

Nilaparvata lugens [7] = experiment: Nilaparvata lugens spray test (NILALU); details: 96 h, 4 dat, read-out: % efficacy
Description: Solvent: 52.5 parts by weight of acetone • 7 parts by weight of dimethylformamide
Emulsifier: alkylaryl polyglycol ether
To produce an appropriate active ingredient formulation, 1 part by weight of active ingredient is dissolved with the stated parts by weight of solvent and made up with water containing an emulsifier concentration of 1000 ppm until the desired concentration is attained. For production of further test concentrations, the mixture is diluted with emulsifier-containing water. If addition of ammonium salts or/and penetrants is required, these are each added to the preparation solution in a concentration of 1000 ppm.
Rice plants (Oryza sativa) are sprayed with an active ingredient formulation of the desired concentration and then populated with larvae of the rice cicada (Nilaparvata lugens).
After the desired time, the efficacy in % is determined. 100% means that all rice cicadas have been killed; 0% means that no rice cicadas have been killed.

Myzus persicae [8] = experiment: Myzus persicae drench test (MYZUPE D); details: soil, 240 h, 10 dat, read-out: % efficacy
Description: Solvent: 7 parts by weight of dimethylformamide Emulsifier: 2 parts by weight of alkylaryl polyglycol ether To produce an appropriate active ingredient formulation, 1 part by weight of active ingredient is mixed with the stated amounts of solvent and emulsifier, and the concentrate is diluted with water to the desired concentration, it being necessary to take into account soil volume into which drenching is effected. It should be ensured that a concentration of 40 ppm of emulsifier in the soil is not exceeded. For production of further test concentrations, the mixture is diluted with water. Savoy cabbage plants (Brassica oleracea) in earth pots, infested by all stages of the green peach aphid (Myzus persicae), are drenched with an active ingredient formulation of the desired concentration. After the desired time, the efficacy in % is determined. 100% means that all aphids have been killed; 0% means that no aphids have been killed.

Phaedon cochleariae = Phaedon cochleariae spray test (PHAECO), contrastive examples; details: 168 h, 100 g/ha, 7 dat, read-out: % efficacy
Description: Solvent: 78.0 parts by weight of acetone • • 1.5 parts by weight of dimethylformamide Emulsifier: alkylaryl polyglycol ether To produce an appropriate active ingredient formulation, 1 part by weight of active ingredient is dissolved with the stated parts by weight of solvent and made up with water containing an emulsifier concentration of 1000 ppm until the desired concentration is attained. For production of further test concentrations, the mixture is diluted with emulsifier-containing water. Discs of chinese cabbage leaves (Brassica pekinensis) are sprayed with an active ingredient formulation of the desired concentration and, after drying, populated with larvae of the mustard beetle (Phaedon cochleariae). After the desired time, the efficacy in % is determined. 100% means that all beetle larvae have been killed; 0% means that no beetle larvae have been killed.

Nilaparvata lugens [9] = experiment: Nilaparvata lugens test (NILALU S); details: read-out: % efficacy
Description: Solvent: 14 parts by weight of dimethylformamide Emulsifier: 2 parts by weight of alkylaryl polyglycol ether To produce an appropriate active ingredient formulation, 1 part by weight of active ingredient is dissolved with the stated parts by weight of solvent and emulsifier and made up with water until the desired concentration is attained. For production of further test concentrations, the mixture is diluted with water. If addition of ammonium salts or/and penetrants (rapeseed oil methyl ester) is required, these are each pipetted into the finished preparation solution in a concentration of 1000 ppm after the dilution. Rice plants (Oryza sativa, var. Balilla) are treated by spraying with the active ingredient formulation in the desired concentration and then populated with L3 larvae of the brown planthopper (Nilaparvata lugens). After the desired time, the kill in % is determined. 100% means that all planthoppers have been killed and 0%, means that no planthoppers have been killed.

SMILES	pest or weed control at 4 ppm (Myzus persicae [1]) [%]	Emax at 4 g/ha (Myzus persicae [3]) [%]	Emax at 0.8 ppm (Myzus persicae [8]) [%]	other results
CCS(=O)(=O)c1ccc(N(C)C(=O)N(C)C)nc1-c1nc2cc(C(F)(F)F)nnc2n1C [Example I-12]	100	90		pest or weed control at 0.8 ppm (Myzus persicae [1]): 100%; Emax at 0.8 ppm (Myzus persicae [2]): 90%; pest or weed control at 20 g/ha (Myzus persicae [4]; application rate 20 g/ha): 90%; pest or weed control at 100 g/ha (Myzus persicae [4]): 100%
CCS(=O)(=O)c1ccc(NC(=O)NC)nc1-c1nc2cc(C(F)(F)C(F)(F)F)nnc2n1C [Example I-7]		100		
CNC(=O)Nc1ccc(S(C)(=O)=O)c(-c2nc3cc(C(F)(F)F)nnc3n2C)n1 [Example I-5]	100			pest or weed control at 100 ppm (Ctenocephalides felis [5]): 100%; pest or weed control at 0.8 ppm (Myzus persicae [1]): 100%; pest or weed control at 100 g/ha (Myzus persicae [4]): 90%; pest or weed control at 5 µg/cm2, 500 g/ha (Ctenocephalides felis [6]): 100%
CCS(=O)(=O)c1ccc(N(C)C(=O)NC)nc1-c1nc2cc(C(F)(F)C(F)(F)F)nnc2n1C [Example I-8]	100		99	Emax at 4 g/ha (Nilaparvata lugens [7]): 50%
CCS(=O)(=O)c1ccc(NC(=O)N(C)C)nc1-c1nc2cc(C(F)(F)C(F)(F)F)nnc2n1C [Example I-9]	100		98	
CN(C)C(=O)Nc1ccc(S(C)(=O)=O)c(-c2nc3cc(C(F)(F)F)nnc3n2C)n1 [Example I-4]	100			pest or weed control at 100 ppm (Ctenocephalides felis [5]): 100%
CCNC(=O)Nc1ccc(S(=O)(=O)CC)c(-c2nc3cc(C(F)(F)F)nnc3n2C)n1 [Prior art according to WO2017/025419, reference compound]		0		Emax at 4 g/ha (Nilaparvata lugens [7]): 0%; Emax at 0.8 ppm (Myzus persicae [2]): 0%; Emax at 100 g/ha (Phaedon cochleariae): 50%
CN(C)C(=O)Nc1ccc(S(C)(=O)=O)c(-c2nc3cc(C(F)(F)C(F)(F)F)nnc3n2C)n1 [Example I-11]	100		95	Emax at 0.8 ppm (Nilaparvata lugens [9]; 336 h, 14 dat): 85%
CCS(=O)(=O)c1ccc(N(C)C(=O)N(C)C)nc1-c1nc2cc(C(F)(F)C(F)(F)F)nnc2n1C [Example I-13]	100	90	95	
CNC(=O)Nc1ccc(S(C)(=O)=O)c(-c2nc3cc(C(F)(F)C(F)(F)F)nnc3n2C)n1 [Example I-10]	100			Emax at 0.8 ppm (Nilaparvata lugens [9]; 168 h, 7 dat): 95%; Emax at 0.8 ppm (Nilaparvata lugens [9]; 336 h, 14 dat): 80%
